Results reported in patent US8409550B2, “Method for treating skin with retinoids and retinoid boosters” (Unilever Home & Personal Care, USA, Division of Conopco, …, priority 2000, dated 2013).
pIC50: −log10 of the molar value. Values joined by “and” are separate entries in the source; they are usually repeats but may differ in a detail not shown here. Equal values may be shown once. Read-outs that look alike come from different tables or passages of the source.

Experiments:
Retinal Reductase = assay: Assay for retinal reductase activity, rat liver microsomes (to identify B3); type: biochemical; conditions: test compound final 100 μM
[1] = test system: transglutaminase (TGase I); assay: Transglutaminase (Tgase) ELISA assay in cultured keratinocytes with retinol and boosters; type: cell-based, human; conditions: for TG as % C Compd 2 / TG as % C, Compd 3 / TG as % C Compd 1: concentration one log below IC20; for TG as % C, Compd 3: Compound 3 alone; for IC20: IC20 (80% of control)
LRAT = target: T1, LRAT (Bos taurus, UniProt Q9BGL2); assay: Assay for LRAT activity, bovine RPE microsomes (to identify B1); type: biochemical; conditions: for % Inhibition LRAT (10 jm): compound 10 jm
T1 construct: followed by approximately 15 μg of RPE microsomal protein; tissue W. L. Lawson Co., Lincoln, Nebr., USA (eyecups); host or cells: bovine retinal pigment epithelium microsomes
T1 sequence (Q9BGL2 1-230): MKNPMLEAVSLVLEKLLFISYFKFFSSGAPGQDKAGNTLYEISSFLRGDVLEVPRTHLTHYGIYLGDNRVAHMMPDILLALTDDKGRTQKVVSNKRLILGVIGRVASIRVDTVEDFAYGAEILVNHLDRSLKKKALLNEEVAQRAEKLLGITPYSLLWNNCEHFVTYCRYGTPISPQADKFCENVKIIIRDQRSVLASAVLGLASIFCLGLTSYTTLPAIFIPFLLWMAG

[2] = test system: cytochrome P450 dependent retinoic acid oxidation; assay: Assay for NADPH dependent retinoic acid oxidation, rat liver microsomes (to identify B5); conditions: for % Inhibition Retinoic Acid (10 μM): compound 10 μM; for % Inhibition Retinoic Acid (100 μM): compound 100 μM
ARAT = assay: Assay for ARAT activity, bovine RPE microsomes (to identify B1); type: biochemical; conditions: for % Inhibition ARAT (100 jm): compound 100 jm; for % Inhibition ARAT (10 jm): compound 10 jm
[3] = Compound 2 alone, in the presence of 10^-7M retinol
[4] = in the presence of 10^-7M retinol
[5] = compound tested individually in the presence of 10^-7 M retinol
[6] = Tgase inhibition, compound tested individually in the presence of 10^-7 M retinol, read-out: IC50
[7] = B1 table, booster concentration which with 10^−7 M retinol inhibits TGase by 50%, same values in the 19th table (Molar), read-out: Overall TG (IC 50)
[8] = Compound 1 alone, in the presence of 10^-7M retinol

CC1(C)[C@@H](O)CC[C@]2(C)[C@H]3C(=O)C=C4[C@@H]5C[C@@](C)(C(=O)O)CC[C@]5(C)CC[C@@]4(C)[C@]3(C)CC[C@@H]12 [Glycyrretinic Acid, Glycyrrhetinic Acid]
% Inhibition Retinal Reductase (Retinal Reductase): 38% +/− 1
TG as % C Compd 2 [1, 3]: 91 % C
TG as % C, Compd 3 [1, 4]: 91 % C
IC20 [1, 5]: 5.96 µM
pIC50 [1, 6]: 5.06
TG as % C Compd 2 ([1]; compound 2 alone, with retinol): 92 % C

Damascenone
% Inhibition LRAT (10 jm) (LRAT): 29%
% Inhibition LRAT (100 jm) (LRAT; compound 100 jm): 79%

C/C=C\C(=O)C1C(C)=CCCC1(C)C (stereo not drawn) [Alpha-Damascone]
% Inhibition LRAT (10 jm) (LRAT): 87% +/− 6
% Inhibition LRAT (100 jm) (LRAT; compound 100 jm): 98% +/− 1
pIC50 [1, 7]: 3.47
IC20 [1, 5]: 169 µM
pIC50 [1, 6]: 3.47
TG as % C Compd 1 ([1]; compound 1 alone, with retinol, listed as Alpha-demascone): 95 % C and 112 % C

Hexanoyl Sphingosine
% Inhibition LRAT (100 jm) (LRAT; compound 100 jm): 37% +/− 9
pIC50 [1, 7]: 4.00
TG as % C Compd 1 [1, 8]: 104 % C
IC20 [1, 5]: 69.4 µM
pIC50 [1, 6]: 4.00
TG as % C Compd 1 ([1]; compound 1 alone, with retinol): 122 % C and 99.3 % C and 99 % C and 109 % C

CCCCCCCC/C=C\CCCCCCCC1=NCCN1CCO [Oleyl Hydroxyethylimidazoline]
pIC50 ([1]; B5 table, with 10^−7 M retinol, read-out: Overall TG (IC 50)): 4.52
TG as % C, Compd 3 [1, 4]: 76 % C
IC20 [1, 5]: 5.65 µM
pIC50 [1, 6]: 4.52
TG as % C Compd 2 ([1]; compound 2 alone, with retinol, listed as Oleoyl hydorxyethylimdazoline): 92 % C
TG as % C Compd 2 ([1]; compound 2 alone, with retinol, listed as Oleoyl hydroxyethylimiazoline): 73 % C
% Inhibition Retinoic Acid (10 μM) [2]: 54%
% Inhibition Retinoic Acid (100 μM) [2]: 80%

CC(=O)CCC1C(C)=CCCC1(C)C (stereo not drawn) [Dihydro Alpha-Ionone]
% Inhibition ARAT (100 jm) (ARAT): 13%
% Inhibition LRAT (100 jm) (LRAT; compound 100 jm): 18%

Clc1ccc(COC(Cn2ccnc2)c2ccc(Cl)cc2Cl)c(Cl)c1 (centres unmarked) [Miconazole, reference compound]
TG as % C Compd 2 [1, 3]: 92 % C
TG as % C, Compd 3 [1, 4]: 82 % C
IC20 [1, 5]: 0.0842 µM
% Inhibition Retinoic Acid (10 μM) [2]: 74%
% Inhibition Retinoic Acid (100 μM) [2]: 86%

COc1cc(C=O)ccc1O [Vanillin]
% Inhibition Retinal Reductase (Retinal Reductase): 6%
TG as % C, Compd 3 [1, 4]: 134 % C
IC20 [1, 5]: 8470 µM

CC=CC(=O)C1CCC(C)(C)C=C1C (centres unmarked) [Isodamascone]
% Inhibition ARAT (100 jm) (ARAT): 80%
% Inhibition LRAT (100 jm) (LRAT; compound 100 jm): 92%

Clc1ccc(COC(Cn2ccnc2)c2ccc(Cl)cc2Cl)cc1 (centres unmarked) [Econazole]
% Inhibition Retinoic Acid (10 μM) [2]: 88%
% Inhibition Retinoic Acid (100 μM) [2]: 100%

Alpha-Methyl Ionone
% Inhibition ARAT (100 jm) (ARAT): 67%
% Inhibition LRAT (100 jm) (LRAT; compound 100 jm): 77%

CCCCC/C=C\C/C=C\CCCCCCCC(=O)O [Linoleic Acid]
% Inhibition Retinal Reductase (Retinal Reductase): 62% +/− 2
TG as % C, Compd 3 [1, 4]: 11 % C
IC20 [1, 5]: 89.5 µM

O=c1c(O)c(-c2ccc(O)c(O)c2)oc2cc(O)cc(O)c12 [Quercetin]
TG as % C, Compd 3 [1, 4]: 92 % C
IC20 [1, 5]: 51.1 µM
% Inhibition Retinoic Acid (10 μM) [2]: 40%
% Inhibition Retinoic Acid (100 μM) [2]: 74%

Cocoyl Monoethanolamide
% Inhibition ARAT (100 jm) (ARAT): 13%
% Inhibition LRAT (100 jm) (LRAT; compound 100 jm): 34%

C/C=C/C(=O)C1=C(C)CCCC1(C)C [Beta-Damascone]
% Inhibition LRAT (10 jm) (LRAT): 52%
% Inhibition LRAT (100 jm) (LRAT; compound 100 jm): 92%

Brahmanol
% Inhibition ARAT (100 jm) (ARAT): 70%
% Inhibition LRAT (100 jm) (LRAT; compound 100 jm): 75%

CC(C)(O)CCCC1=CCC(C=O)CC1 (centres unmarked) [Lyral]
% Inhibition ARAT (100 jm) (ARAT): 76%
TG as % C Compd 1 [1, 8]: 97 % C
IC20 [1, 5]: 40 µM
TG as % C Compd 1 ([1]; compound 1 alone, with retinol): 120 % C

O=C1C[C@@H](c2ccc(O)cc2)Oc2cc(O)cc(O)c21 [Naringenin]
% Inhibition ARAT (100 jm) (ARAT): 33%
TG as % C, Compd 3 [1, 4]: 94 % C
TG as % C Compd 1 ([1]; compound 1 alone, with retinol): 95 % C

CC(C)(C)C(=O)C(Oc1ccc(Cl)cc1)n1ccnc1 (centres unmarked) [Climbazole, reference compound]
TG as % C Compd 2 [1, 3]: 84 % C
TG as % C, Compd 3 [1, 4]: 84 % C
IC20 [1, 5]: 0.245 µM
% Inhibition Retinoic Acid (10 μM) [2]: 80%
% Inhibition Retinoic Acid (100 μM) [2]: 92%

Ethyl Saffranate
% Inhibition LRAT (100 jm) (LRAT; compound 100 jm): 49%

CCCCCCCCCCCCCC(=O)O [Myristic Acid]
% Inhibition Retinal Reductase (Retinal Reductase): 26%
TG as % C Compd 1 [1, 8]: 79 % C
IC20 [1, 5]: 10.5 µM
TG as % C Compd 1 ([1]; compound 1 alone, with retinol): 110 % C

CCCCC/C=C\C/C=C\C/C=C\C/C=C\CCCC(=O)O [Arachidonic Acid]
% Inhibition Retinal Reductase (Retinal Reductase): 49%

Santalone
% Inhibition ARAT (100 jm) (ARAT): 23%
% Inhibition LRAT (100 jm) (LRAT; compound 100 jm): 12%

Isobutyl Ionone
% Inhibition ARAT (100 jm) (ARAT): 8%
% Inhibition LRAT (100 jm) (LRAT; compound 100 jm): 45%

CCCCCCCC(=O)OCC(COP(=O)(O)OCCN)OC(=O)CCCCCCC (centres unmarked) [Dioctylphosphatidyl Ethanolamine]
% Inhibition ARAT (10 jm) (ARAT): 23%
% Inhibition LRAT (10 jm) (LRAT): 0%
% Inhibition LRAT (100 jm) (LRAT; compound 100 jm): 17% +/− 17

CC(=O)/C=C/C=C(\C)CCC=C(C)C [Pseudoionone]
% Inhibition LRAT (100 jm) (LRAT; compound 100 jm): 37%

Clc1ccccc1C(c1ccccc1)(c1ccccc1)n1ccnc1 [Clotrimazole, reference compound]
TG as % C, Compd 3 [1, 4]: 79 % C
% Inhibition Retinoic Acid (10 μM) [2]: 76%

c1ccc(-c2ccc(C(c3ccccc3)n3ccnc3)cc2)cc1 (centres unmarked) [Bifonazole]
% Inhibition Retinoic Acid (10 μM) [2]: 89%
% Inhibition Retinoic Acid (100 μM) [2]: 100%

Acetyl Sphingosine
% Inhibition ARAT (10 jm) (ARAT): 19% +/− 12
% Inhibition ARAT (100 jm) (ARAT): 62% +/− 11
% Inhibition LRAT (10 jm) (LRAT): 10% +/− 10
% Inhibition LRAT (100 jm) (LRAT; compound 100 jm): 50% +/− 18
pIC50 [1, 7]: 5.17
TG as % C, Compd 3 [1, 4]: 99 % C
IC20 [1, 5]: 5.15 µM
pIC50 [1, 6]: 5.17

CCCC(O)CCC1C(C)CCCC1(C)C (centres unmarked) [Timberol]
% Inhibition LRAT (100 jm) (LRAT; compound 100 jm): 33%

Delta-Damascone
% Inhibition LRAT (10 jm) (LRAT): 64%
% Inhibition LRAT (100 jm) (LRAT; compound 100 jm): 95%

CCCCC/C=C\C/C=C\CCCCCCCC(=O)N(CCO)CCO [Linoleoyl Diethanolamide]
% Inhibition LRAT (10 jm) (LRAT): 11% +/− 9
% Inhibition LRAT (100 jm) (LRAT; compound 100 jm): 51% +/− 15
% Inhibition Overall TG (—ROH/RE) ([1]; % (booster+retinol inhibition/control inhibition) − % (ROH inhibition/control inhibition)): 59%

CC(/C=C/C=C(\C)C(=O)O)=C\C=C\C=C(C)\C=C\C=C(/C)C(=O)O [Crocetin]
% Inhibition ARAT (10 jm) (ARAT): 15%
% Inhibition ARAT (100 jm) (ARAT): 34%
TG as % C, Compd 3 [1, 4]: 90 % C
IC20 [1, 5]: 25.2 µM

Glycerol-PCA-Oleate
% Inhibition ARAT (100 jm) (ARAT): 41% +/− 6
% Inhibition LRAT (100 jm) (LRAT; compound 100 jm): 58% +/− 2

CC(C)(C(=O)c1cccnc1)c1cccnc1 [2-Methyl-1,2-di-3-Pyridyl-1-Propane]
% Inhibition Retinoic Acid (100 μM) [2]: 47%

Santanol
% Inhibition ARAT (100 jm) (ARAT): 15%
% Inhibition LRAT (100 jm) (LRAT; compound 100 jm): 43%

CC(=O)N1CCN(c2ccc(OCC3COC(Cn4ccnc4)(c4ccc(Cl)cc4Cl)O3)cc2)CC1 (centres unmarked) [Ketoconazole, reference compound]
TG as % C Compd 2 [1, 3]: 85 % C
IC20 [1, 5]: 0.0552 µM
% Inhibition Retinoic Acid (10 μM) [2]: 84%
% Inhibition Retinoic Acid (100 μM) [2]: 84%

Isocyclogeraniol
% Inhibition ARAT (100 jm) (ARAT): 18%
% Inhibition LRAT (100 jm) (LRAT; compound 100 jm): 16%

CCCCCCCCCCCCCCCCCCCC(=O)O [Arachidic Acid]
% Inhibition Retinal Reductase (Retinal Reductase): 20%

Gamma-Methyl Ionone
% Inhibition LRAT (100 jm) (LRAT; compound 100 jm): 38%

C=CC(C)(O)CCC=C(C)C (centres unmarked) [Linalool]
inhibition at 100 µM (LRAT; compound 100 jm): 0%
